Patent publication US20260285850A1, “SUBSTITUTED OXAZOLIDINONES AND IMIDAZOLINONES AS HERBICIDES” (FMC CORPORATION, priority 2023, published 2026)

Columns and labels:
Type in all cases: in vivo
[1] = tested on: barnyardgrass (Echinochloa crus-galli); test: Test A preemergence soil spray, visual injury rating 0-100; conditions: 10 days, 0 = no effect, 100 = complete control
In short: (§1)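 Grow plants in loam soil blended with sand. Apply formulated compound (non-phytotoxic solvent, surfactant) as a directed soil spray before emergence, or to plants at the one- to two-leaf stage after emergence. Hold in greenhouse 10 days, then rate injury visually versus untreated controls on a 0-100 scale.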

[2] = tested on: blackgrass (Alopecurus myosuroides); test: as above; conditions: 10 days, 0 = no effect, 100 = complete control
In short: as §1

corn (Zea mays) [3] = test: as above; conditions: 10 days, 0 = no effect, 100 = complete control
In short: as §1

[4] = tested on: foxtail, giant (giant foxtail, Setaria faberi); test: as above; conditions: 10 days, 0 = no effect, 100 = complete control
In short: as §1

kochia (Bassia scoparia) [5] = test: as above; conditions: 10 days, 0 = no effect, 100 = complete control
In short: as §1

[6] = tested on: oat, wild (wild oat, Avena fatua); test: as above; conditions: 10 days, 0 = no effect, 100 = complete control
In short: as §1

[7] = tested on: palmer (palmer amaranth, palmer pigweed, Amaranthus palmeri); test: as above; conditions: 10 days, 0 = no effect, 100 = complete control
In short: as §1

[8] = tested on: ragweed (common ragweed, Ambrosia artemisiifolia); test: as above; conditions: 10 days, 0 = no effect, 100 = complete control
In short: as §1

[9] = tested on: ryegrass, Italian (italian ryegrass, Lolium multiflorum); test: as above; conditions: 10 days, 0 = no effect, 100 = complete control
In short: as §1

soybean (Glycine max) [10] = test: as above; conditions: 10 days, 0 = no effect, 100 = complete control
In short: as §1

[11] = tested on: wheat (Triticum aestivum); test: as above; conditions: 10 days, 0 = no effect, 100 = complete control
In short: as §1

[12] = tested on: barnyardgrass (Echinochloa crus-galli); test: Test A postemergence application, visual injury rating 0-100; conditions: Postemergence, 10 days, 0 is no effect, 100 is complete control
In short: as §1

[13] = tested on: blackgrass (Alopecurus myosuroides); test: as above; conditions: Postemergence, 10 days, 0 is no effect, 100 is complete control
In short: as §1

corn (Zea mays) [14] = test: as above; conditions: Postemergence, 10 days, 0 is no effect, 100 is complete control
In short: as §1

[15] = tested on: foxtail, giant (giant foxtail, Setaria faberi); test: as above; conditions: 10 days, 0 is no effect, 100 is complete control
In short: as §1

[16] = tested on: galium (catchweed bedstraw, Galium aparine); test: as above; conditions: Postemergence, 10 days, 0 is no effect, 100 is complete control
In short: as §1

[17] = tested on: horseweed (Erigeron canadensis); test: as above; conditions: Postemergence, 10 days, 0 is no effect, 100 is complete control
In short: as §1

kochia (Bassia scoparia) [18] = test: as above; conditions: Postemergence, 10 days, 0 is no effect, 100 is complete control
In short: as §1

[19] = tested on: oat, wild (wild oat, Avena fatua); test: as above; conditions: Postemergence, 10 days, 0 is no effect, 100 is complete control
In short: as §1

[20] = tested on: palmer (palmer amaranth, palmer pigweed, Amaranthus palmeri); test: as above; conditions: Postemergence, 10 days, 0 is no effect, 100 is complete control
In short: as §1

[21] = tested on: ragweed (common ragweed, Ambrosia artemisiifolia); test: as above; conditions: Postemergence, 10 days, 0 is no effect, 100 is complete control
In short: as §1

[22] = tested on: ryegrass, Italian (italian ryegrass, Lolium multiflorum); test: as above; conditions: Postemergence, 10 days, 0 is no effect, 100 is complete control
In short: as §1

soybean (Glycine max) [23] = test: as above; conditions: Postemergence, 10 days, 0 is no effect, 100 is complete control
In short: as §1

[24] = tested on: wheat (Triticum aestivum); test: as above; conditions: Postemergence, 10 days, 0 is no effect, 100 is complete control
In short: as §1

[25] = tested on: barnyardgrass (Echinochloa crusgalli); test: Test B flooded paddy test, visual plant response rating 0-100; conditions: 250 g ai/ha, Flood, applied to paddy water, evaluated after 13 days
In short: (§2)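 In this flooded assay, 2-leaf seedlings received compound through the water layer, kept at 3 cm over the soil. Plants were held 13 days in a greenhouse and then visually compared with control pots.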

[26] = tested on: ducksalad (Heteranthera limosa); test: as above; conditions: 250 g ai/ha, Flood, applied to paddy water, evaluated after 13 days
In short: as §2

rice (Oryza sativa) = test: as above; conditions: 250 g ai/ha, Flood, applied to paddy water, evaluated after 13 days
In short: as §2

[27] = tested on: sedge, umbrella (small-flower umbrella sedge, Cyperus difformis); test: as above; conditions: 250 g ai/ha, Flood, applied to paddy water, evaluated after 13 days
In short: as §2

SMILES: CC1(C(=O)N[C@H]2C=C[C@@H](C(=O)O)C2)CN(c2cc(F)cc(F)c2)C(=O)O1 (stereo partly drawn) [Compound 51, (1S,4R)-4-[[[3-(3,5-Difluorophenyl)-5-methyl-2-oxo-5-oxazolidinyl]carbonyl]amino]-2-cyclopentene-1-carboxylic acid]
- Barnyardgrass plant response rating (0 to 100 scale) ([1]; 125 g ai/ha): 100
- Barnyardgrass plant response rating (0 to 100 scale) ([1]; 500 g ai/ha): 100
- Blackgrass plant response rating (0 to 100 scale) ([2]; 125 g ai/ha): 80
- Blackgrass plant response rating (0 to 100 scale) ([2]; 500 g ai/ha): 90
- Corn plant response rating (0 to 100 scale) (corn (Zea mays) [3]; 125 g ai/ha): 90
- Corn plant response rating (0 to 100 scale) (corn (Zea mays) [3]; 500 g ai/ha): 90
- Foxtail, Giant plant response rating (0 to 100 scale) ([4]; 125 g ai/ha): 90
- Foxtail, Giant plant response rating (0 to 100 scale) ([4]; 500 g ai/ha): 100
- Kochia plant response rating (0 to 100 scale) (kochia (Bassia scoparia) [5]; 125 g ai/ha): 90
- Kochia plant response rating (0 to 100 scale) (kochia (Bassia scoparia) [5]; 500 g ai/ha): 100
- Oat, Wild plant response rating (0 to 100 scale) ([6]; 125 g ai/ha): 90
- Oat, Wild plant response rating (0 to 100 scale) ([6]; 500 g ai/ha): 90
- Amaranth, Palmer plant response rating (0 to 100 scale) ([7]; 125 g ai/ha): 90
- Amaranth, Palmer plant response rating (0 to 100 scale) ([7]; 500 g ai/ha): 100
- Ragweed plant response rating (0 to 100 scale) ([8]; 125 g ai/ha): 70
- Ragweed plant response rating (0 to 100 scale) ([8]; 500 g ai/ha): 80
- Ryegrass, Italian plant response rating (0 to 100 scale) ([9]; 125 g ai/ha): 90
- Ryegrass, Italian plant response rating (0 to 100 scale) ([9]; 500 g ai/ha): 100
- Soybean plant response rating (0 to 100 scale) (soybean (Glycine max) [10]; 125 g ai/ha): 70
- Soybean plant response rating (0 to 100 scale) (soybean (Glycine max) [10]; 500 g ai/ha): 100
- Wheat plant response rating (0 to 100 scale) ([11]; 125 g ai/ha): 100
- Wheat plant response rating (0 to 100 scale) ([11]; 500 g ai/ha): 100
- Barnyardgrass plant response rating (0 to 100 scale) ([12]; 125 g ai/ha): 100
- Barnyardgrass plant response rating (0 to 100 scale) ([12]; 500 g ai/ha): 100
- Blackgrass plant response rating (0 to 100 scale) ([13]; 125 g ai/ha): 90
- Blackgrass plant response rating (0 to 100 scale) ([13]; 500 g ai/ha): 100
- Corn plant response rating (0 to 100 scale) (corn (Zea mays) [14]; 125 g ai/ha): 90
- Corn plant response rating (0 to 100 scale) (corn (Zea mays) [14]; 500 g ai/ha): 90
- Foxtail, Giant plant response rating (0 to 100 scale) ([15]; 125 g ai/ha): 90
- Foxtail, Giant plant response rating (0 to 100 scale) ([15]; 500 g ai/ha): 90
- Galium plant response rating (0 to 100 scale) ([16]; 125 g ai/ha): 70
- Galium plant response rating (0 to 100 scale) ([16]; 500 g ai/ha): 70
- Horseweed plant response rating (0 to 100 scale) ([17]; 125 g ai/ha): 80
- Horseweed plant response rating (0 to 100 scale) ([17]; 500 g ai/ha): 100
- Kochia plant response rating (0 to 100 scale) (kochia (Bassia scoparia) [18]; 125 g ai/ha): 80
- Kochia plant response rating (0 to 100 scale) (kochia (Bassia scoparia) [18]; 500 g ai/ha): 80
- Oat, Wild plant response rating (0 to 100 scale) ([19]; 125 g ai/ha): 90
- Oat, Wild plant response rating (0 to 100 scale) ([19]; 500 g ai/ha): 90
- Amaranth, Palmer / Pigweed, Palmer plant response rating (0 to 100 scale) ([20]; 125 g ai/ha): 90
- Amaranth, Palmer / Pigweed, Palmer plant response rating (0 to 100 scale) ([20]; 500 g ai/ha): 90
- Ragweed plant response rating (0 to 100 scale) ([21]; 125 g ai/ha): 60
- Ragweed plant response rating (0 to 100 scale) ([21]; 500 g ai/ha): 70
- Ryegrass, Italian plant response rating (0 to 100 scale) ([22]; 125 g ai/ha): 70
- Ryegrass, Italian plant response rating (0 to 100 scale) ([22]; 500 g ai/ha): 70
- Soybean plant response rating (0 to 100 scale) (soybean (Glycine max) [23]; 125 g ai/ha): 70
- Soybean plant response rating (0 to 100 scale) (soybean (Glycine max) [23]; 500 g ai/ha): 100
- Wheat plant response rating (0 to 100 scale) ([24]; 125 g ai/ha): 90
- Wheat plant response rating (0 to 100 scale) ([24]; 500 g ai/ha): 90
- Plant response rating, Barnyardgrass (0 to 100 scale, 0 is no effect and 100 is complete control) [25]: 75
- Plant response rating, Ducksalad (0 to 100 scale, 0 is no effect and 100 is complete control) [26]: 60
- Plant response rating, Rice (0 to 100 scale, 0 is no effect and 100 is complete control) (rice (Oryza sativa)): 60
- Plant response rating, Sedge, Umbrella (0 to 100 scale, 0 is no effect and 100 is complete control) [27]: 60
